According to paper PMC9090415, “Discovery of small molecule inhibitors of Plasmodium falciparum apicoplast DNA polymerase” (Journal of Enzyme Inhibition and Medicinal Chemistry, 2022):

Biological target: P. falciparum apicoplast DNA polymerase (Pf-apPOL) (Plasmodium falciparum, UniProt Q8ILY1)
Assay: Fluorescence-based high-throughput DNA polymerase assay (molecular beacon), primary screen and dose-response;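 as to % inhibition ApPOL 90': test concentration in µM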;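 as to % inhibition Apol 40': compound concentration given in µM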;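 as to % inhibition apPOL 180': test concentration in µM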
Format: biochemical
Conditions: for DNA Pol: 90 min, 10 µM
In short: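 Single-point screening used 10 µM compound with 20 nM polymerase, 20 nM hairpin substrate and 6 µM dNTPs for 90 min at 25 °C. Confirmatory titrations (2.5–80 µM) followed fluorescence at three times, and IC50 was derived from a fit including a cooperativity term n.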

[1] = "DNA Pol" of the 186 hits list (screen value)

P. falciparum apicoplast DNA polymerase (Pf-apPOL), sequence (Q8ILY1 entry or part of it): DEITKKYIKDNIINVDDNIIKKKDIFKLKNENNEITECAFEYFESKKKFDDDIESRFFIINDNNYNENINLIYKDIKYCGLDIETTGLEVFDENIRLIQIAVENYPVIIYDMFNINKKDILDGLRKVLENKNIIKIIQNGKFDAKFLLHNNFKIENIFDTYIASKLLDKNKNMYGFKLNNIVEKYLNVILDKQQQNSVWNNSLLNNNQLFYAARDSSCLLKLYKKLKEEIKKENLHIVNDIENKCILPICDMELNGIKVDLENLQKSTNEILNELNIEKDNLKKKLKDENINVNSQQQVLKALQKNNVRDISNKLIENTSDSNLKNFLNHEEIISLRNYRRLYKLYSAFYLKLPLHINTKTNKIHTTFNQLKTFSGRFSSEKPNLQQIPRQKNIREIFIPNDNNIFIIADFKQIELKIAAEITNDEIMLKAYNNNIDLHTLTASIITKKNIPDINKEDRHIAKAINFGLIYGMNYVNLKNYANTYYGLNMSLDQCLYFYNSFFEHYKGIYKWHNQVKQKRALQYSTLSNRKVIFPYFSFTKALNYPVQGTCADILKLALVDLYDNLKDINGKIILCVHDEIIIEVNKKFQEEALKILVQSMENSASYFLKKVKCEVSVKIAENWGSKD

O=C(Nc1ccc2c(c1)Cc1cc(NC(=O)c3ccco3)ccc1-2)c1ccco1 [KU0038977]
DNA Pol [1]: 27
% inhibition Apo pol 10' (DRC-1, concentration 2.5): -0.5837%
% inhibition Apo pol 10' (DRC-1, concentration 5): 5.785%
% inhibition Apo pol 10' (DRC-1, concentration 10): 28.4085%
% inhibition Apo pol 10' (DRC-1, concentration 20): 37.8617%
% inhibition Apo pol 10' (DRC-1, concentration 40): 75.7214%
% inhibition Apo pol 10' (DRC-1, concentration 80): 91.1334%
% inhibition Apol 90' (DRC-1, concentration 2.5): -0.5506%
% inhibition Apol 90' (DRC-1, concentration 5): 1.199%
% inhibition Apol 90' (DRC-1, concentration 10): 17.4686%
% inhibition Apol 90' (DRC-1, concentration 20): 25.9%
% inhibition Apol 90' (DRC-1, concentration 40): 60.9972%
% inhibition Apol 90' (DRC-1, concentration 80): 80.3159%
% inhibition apPOL 180' (DRC-1, concentration 2.5): -0.3262%
% inhibition apPOL 180' (DRC-1, concentration 5): 0.08289%
% inhibition apPOL 180' (DRC-1, concentration 10): 10.649%
% inhibition apPOL 180' (DRC-1, concentration 20): 16.9681%
% inhibition apPOL 180' (DRC-1, concentration 40): 47.3942%
% inhibition apPOL 180' (DRC-1, concentration 80): 72.1517%
% inhibition Apo pol 5' (DRC-2, concentration 2.5): 21%
% inhibition Apo pol 5' (DRC-2, concentration 5): 10%
% inhibition Apo pol 5' (DRC-2, concentration 10): 35%
% inhibition Apo pol 5' (DRC-2, concentration 20): 42%
% inhibition Apo pol 5' (DRC-2, concentration 40): 53%
% inhibition Apo pol 5' (DRC-2, concentration 80): 27%
% inhibition Apol 40' (DRC-2, concentration 2.5): 30%
% inhibition Apol 40' (DRC-2, concentration 5): 10%
% inhibition Apol 40' (DRC-2, concentration 10): 40%
% inhibition Apol 40' (DRC-2, concentration 20): 52%
% inhibition Apol 40' (DRC-2, concentration 40): 69%
% inhibition Apol 40' (DRC-2, concentration 80): 58%
% inhibition ApPOL 90' (DRC-2, concentration 2.5): 29%
% inhibition ApPOL 90' (DRC-2, concentration 5): 6.46%
% inhibition ApPOL 90' (DRC-2, concentration 10): 35%
% inhibition ApPOL 90' (DRC-2, concentration 20): 50%
% inhibition ApPOL 90' (DRC-2, concentration 40): 71%
% inhibition ApPOL 90' (DRC-2, concentration 80): 65%
% inhibition apPOL 180' (DRC-2, concentration 2.5): 20%
% inhibition apPOL 180' (DRC-2, concentration 5): -3.38%
% inhibition apPOL 180' (DRC-2, concentration 10): 23%
% inhibition apPOL 180' (DRC-2, concentration 20): 40%
% inhibition apPOL 180' (DRC-2, concentration 40): 68%
% inhibition apPOL 180' (DRC-2, concentration 80): 69%
DNA Pol (primary screen value, DNA Pol): 27

CCCCC(=O)N1CCc2c(nc3cc(-c4ccccc4Cl)[nH]n3c2=O)C1 [Molecule 37, CCCCC(=O)N1CCc2c(C1)nc1n(c2=O)[nH]c(c1)c1ccccc1Cl]
DNA Pol [1]: 43
% inhibition Apo pol 10' (DRC-1, concentration 2.5): 9.306%
% inhibition Apo pol 10' (DRC-1, concentration 5): 24.2361%
% inhibition Apo pol 10' (DRC-1, concentration 10): 50.6318%
% inhibition Apo pol 10' (DRC-1, concentration 20): 65.8539%
% inhibition Apo pol 10' (DRC-1, concentration 40): 79.9976%
% inhibition Apo pol 10' (DRC-1, concentration 80): 82.2007%
% inhibition Apol 90' (DRC-1, concentration 2.5): 2.3506%
% inhibition Apol 90' (DRC-1, concentration 5): 13.0098%
% inhibition Apol 90' (DRC-1, concentration 10): 36.7881%
% inhibition Apol 90' (DRC-1, concentration 20): 53.1884%
% inhibition Apol 90' (DRC-1, concentration 40): 71.0429%
% inhibition Apol 90' (DRC-1, concentration 80): 81.0911%
% inhibition apPOL 180' (DRC-1, concentration 2.5): -3.183%
% inhibition apPOL 180' (DRC-1, concentration 5): 4.447%
% inhibition apPOL 180' (DRC-1, concentration 10): 22.1273%
% inhibition apPOL 180' (DRC-1, concentration 20): 36.1098%
% inhibition apPOL 180' (DRC-1, concentration 40): 57.5163%
% inhibition apPOL 180' (DRC-1, concentration 80): 72.7607%
% inhibition Apo pol 5' (DRC-2, concentration 2.5): 11%
% inhibition Apo pol 5' (DRC-2, concentration 5): 13%
% inhibition Apo pol 5' (DRC-2, concentration 10): 29%
% inhibition Apo pol 5' (DRC-2, concentration 20): 33%
% inhibition Apo pol 5' (DRC-2, concentration 40): 46%
% inhibition Apo pol 5' (DRC-2, concentration 80): 35%
% inhibition Apol 40' (DRC-2, concentration 2.5): 13%
% inhibition Apol 40' (DRC-2, concentration 5): 15%
% inhibition Apol 40' (DRC-2, concentration 10): 33%
% inhibition Apol 40' (DRC-2, concentration 20): 38%
% inhibition Apol 40' (DRC-2, concentration 40): 62%
% inhibition Apol 40' (DRC-2, concentration 80): 62%
% inhibition ApPOL 90' (DRC-2, concentration 2.5): 12%
% inhibition ApPOL 90' (DRC-2, concentration 5): 13%
% inhibition ApPOL 90' (DRC-2, concentration 10): 30%
% inhibition ApPOL 90' (DRC-2, concentration 20): 35%
% inhibition ApPOL 90' (DRC-2, concentration 40): 63%
% inhibition ApPOL 90' (DRC-2, concentration 80): 68%
% inhibition apPOL 180' (DRC-2, concentration 2.5): 7%
% inhibition apPOL 180' (DRC-2, concentration 5): 8.42%
% inhibition apPOL 180' (DRC-2, concentration 10): 23%
% inhibition apPOL 180' (DRC-2, concentration 20): 23%
% inhibition apPOL 180' (DRC-2, concentration 40): 55%
% inhibition apPOL 180' (DRC-2, concentration 80): 68%
DNA Pol (primary screen value, DNA Pol): 43
